Laboratory results from publication PMC9785280, “Synthesis, Antiproliferative Evaluation and QSAR Analysis of Novel Halogen- and Amidino-Substituted Benzothiazoles and Benzimidazoles” (International Journal of Molecular Sciences, 2022).
Where two headings read alike, the source gives them in different places.

What was measured:
[1] = system: SW620 (colorectal adenocarcinoma, metastatic) cells; assay: MTT antiproliferative assay, SW620; format: cell-based, human; conditions: for IC50: Homo sapiens, SW-620
Description: (§1) The growth inhibition activity was assessed according to the slightly modified procedure performed at the National Cancer Institute, Developmental Therapeutics Program.
(§2) Examined compounds were dissolved in DMSO (1 × 10^−2 M). The experiments were carried out on seven human tumor cell lines and two normal cell lines. The following cell lines were used: HeLa (human cervical adenocarcinoma; purchased from ATCC), CaCo-2 (human colorectal adenocarcinoma), HuT78 (T-cell lymphoma), THP-1 (acute monocytic leukemia), SW620 (colorectal adenocarcinoma, metastatic), MDA-MB-231 (human breast adenocarcinoma), HL60 (promyelocytic leukemia cell line), foreskin fibroblast cells (BJ) and MDCK1 (Madine–Darby canine kidney fibroblast like cells). MDCK1 cells were used between 24 and 26 passages.
(§3) Adherent cells were cultured in the Dulbecco’s modified Eagle medium—DMEM (Gibco, EU) supplemented with 10 % heat-inactivated fetal bovine serum (FBS, Gibco, EU), 2 mM glutamine, and 100 U/0.1 mg penicillin/streptomycin. Cells on suspension were cultured in RPMI 1640 (Gibco, EU) medium supplemented with 10 % FBS (Gibco, EU), 2 mM glutamine, 1 mM sodium pyruvate, 10 mM HEPES. Cells were grown in humidified atmosphere under the conditions of 37 °C/5% of CO2 gas in the CO2 incubator (IGO 150 CELLlife^TM, JOUAN, Thermo Fisher Scientific, Waltham, MA, USA). A erythrosin B (Sigma-Aldrich, St. Louis, MO, USA) dye exclusion method was used to assess cell viability before plating.
(§4) Adherent cells (HeLa, CaCo-2, MCF-7 and MDCK-1) were plated in 96-well flat bottom plates (Greiner, Frickenhausen, Austria) at a concentration of 2 × 10^4 cells/mL. Suspension cells (THP-1 and HuT78) were plated in 96-well microtiter plates (Sarstead, Newton, USA) at a concentration of 1 × 10^5 cells/mL. Twenty-four hours later, cells were treated with test agents in […] 10-fold dilutions ([…] to 10^−4 M) and incubated for further 72 h. Working dilutions were freshly prepared on the day of testing. The solvent was also tested for eventual inhibitory activity by adjusting its concentration to be the same as in working concentrations. After 72 h of incubation, the cell growth rate was evaluated by performing the MTT assay, which detects dehydrogenase activity in viable cells. For this purpose, upon completion of the incubation period, growth medium was discarded and 50 μL of MTT was added to each well at a concentration of 5 mg/mL. After four hours of incubation at 37 °C, water insoluble MTT-formazan crystals were dissolved in 150 μL of dimethyl-sulfoxide (DMSO) for adherent cells, and in 10 % SDS with 0.01 M/L HCl for cells grown in suspension. The absorbance (OD, optical density) was measured on a microplate reader (iMark, BIO RAD, Hercules, CA, USA) at 595 nm.
(§5) Percent of life cells was calculated as follows: % = OD (sample)–OD (background)/OD (control)–OD (background) × 100.
(§6) Optical density (OD) of background for adherent cells is the OD of MTT solution and DMSO; OD (background) for suspension cells is OD of the culture medium with MTT and 10% SDS with 0.01 M/L HCl; OD (control) is the OD of the cells growth without tested compounds.
(§7) Calculation of GI50 value curves and QC analysis is performed by using the Excel tools and GraphPadPrism software (La Jolla, CA), v. 5.03. Briefly, individual concentration effect curves are generated by plotting the logarithm of the concentration of tested compounds(X) vs. corresponding percent inhibition values (Y) using least squares fit. The best fit GI50 values are calculated using Log (inhibitor) versus normalized response—Variable slope equation, where Y Ľ 100/(1 ţ 10 ((LogIC50 _ X) * HillSlope)). QC criteria parameters (Z0, S:B, R2, HillSlope) were checked for every GI50 curve.

[2] = system: HuT78 (T-cell lymphoma) cells; assay: MTT antiproliferative assay, HuT78; format: cell-based, human; conditions: for IC50: 72 h, MTT, mean ± SD of three independent experiments; for SI (MDCK) HuT78: SI = IC50 MDCK1 / IC50 HuT78; for SI (BJ) HuT78: SI = IC50 BJ / IC50 HuT78
Method in brief: (§8)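 Readout: MTT formazan absorbance at 595 nm after a 72 h compound exposure (10^−7–10^−4 M, 10-fold steps). Viability is expressed as background-corrected % of untreated control, and GI50 is fitted by a variable-slope curve.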

[3] = system: THP1 (human monocytic leukemia) cells; assay: MTT antiproliferative assay, THP1; format: cell-based; conditions: for IC50: Homo sapiens, THP-1, 72 h, MTT, mean ± SD of three independent experiments; for SI (BJ) THP1: SI = IC50 BJ / IC50 THP1; for SI (MDCK) THP1: SI = IC50 MDCK1 / IC50 THP1
Description: as §1, §2, §3, §4, §5, §6, §7

[4] = system: MDA-MB-231 (human breast adenocarcinoma) cells; assay: MTT antiproliferative assay, MDA-MB-231; format: cell-based; conditions: for IC50: Homo sapiens, MDA-MB-231, 72 h, MTT, mean ± SD of three independent experiments; for SI (MDCK) MDA-MB-231: SI = IC50 MDCK1 / IC50 MDA-MB-231
Description: as §1, §2, §3, §4, §5, §6, §7

[5] = system: CaCo-2 (colon adenocarcinoma) cells; assay: MTT antiproliferative assay, CaCo-2; format: cell-based, human; conditions: for IC50: Homo sapiens, Caco-2, 72 h, MTT, mean ± SD of three independent experiments; for SI (MDCK) CaCo-2: SI = IC50 MDCK1 / IC50 CaCo-2
Method in brief: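 CaCo-2 cells, plated at 2 × 10^4 cells/mL in DMEM with 10 % FBS at 37 °C/5% CO2, were treated 24 h later with five 10-fold dilutions (10^−7 to 10^−4 M) for 72 h. Viability was measured by MTT (4 h, formazan dissolved in DMSO, OD 595 nm) against background and untreated controls. GI50 came from log-concentration versus percent-inhibition fits.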

human fibroblasts (BJ) = assay: MTT antiproliferative assay, normal BJ fibroblasts; format: cell-based; conditions: for IC50: Homo sapiens, Fibroblast, 72 h, MTT, mean ± SD of three independent experiments, normal cells
Method in brief: as §8

[6] = system: HL60 (promyelocytic leukemia) cells; assay: MTT antiproliferative assay, HL60; format: cell-based, human; conditions: for IC50: Homo sapiens, HL-60, 72 h, MTT, mean ± SD of three independent experiments; for SI (BJ) HL60: SI = IC50 BJ / IC50 HL60; for SI (MDCK) HL60: SI = IC50 MDCK1 / IC50 HL60
Description: as §1, §2, §3, §4, §5, §6, §7

[7] = system: HeLa (cervical adenocarcinoma) cells; assay: MTT antiproliferative assay, HeLa; format: cell-based; conditions: Homo sapiens, 72 h, mean ± SD of three independent experiments
Method in brief: as §8

[8] = system: MDCK1 (Madin–Darby canine kidney) cells; assay: MTT antiproliferative assay, non-tumor MDCK1 cells; format: cell-based; conditions: Canis lupus familiaris, MDCK1, 72 h, mean ± SD of three independent experiments, normal cells
Method in brief: as §8

[9] = 72 h, MTT, mean ± SD of three independent experiments, read-out: IC50 (µM) SW620

Row | Structure (SMILES) | IC50 [1, 9] [µM] | IC50 ([2]; Homo sapiens, HuT78, 72 h) [µM] | SI (MDCK) HuT78 [2] | IC50 [3] [µM] | IC50 [4] [µM] | IC50 [5] [µM] | IC50 (human fibroblasts (BJ)) [µM] | IC50 [6] [µM] | IC50 [7] [µM] | IC50 [8] [µM] | melting point [°C] | SI (MDCK) HL60 [6] | SI (BJ) HuT78 [2] | SI (MDCK) THP1 [3] | further results
1 | COc1cc(-c2nc3ccc(C4=NCCN4)cc3s2)ccc1OCc1c[nH]nn1.Cl [36c, 2-(3-Methoxy-4-((1H-1,2,3-triazol-4-yl)methoxy)phenyl)-6-(4,5-dihydro-1H-imidazol-2-yl)benzothiazole hydrochloride] | > 100 | 1.6 ± 0.8 | 62.5 | > 100 | > 100 | > 100 | > 100 | > 100 | > 100 | > 100 | – | – | – | – | –
2 | Cl.c1cc(-c2nc3ccc(C4=NCCN4)cc3s2)ccc1OCc1c[nH]nn1 [36a, 2-(4-((1H-1,2,3-triazol-4-yl)methoxy)phenyl)-6-(4,5-dihydro-1H-imidazol-2-yl)benzothiazole hydrochloride] | 5.6 ± 1.2 | 4.4 ± 3.9 | 7.23 | 20.4 ± 3.3 | 33 ± 4.9 | 24.8 ± 9.2 | – | 18.8 ± 1.1 | 62.6 ± 22 | – | 218 to 221 | – | – | – | IC50 ([1]; span over SW620, MDA-MB-231, HL60, THP1, read-out: IC50 values on additional set of tumor cells): 5.6 to 33 µM
3 | COc1cc(-c2nc3ccc(C4=NCCCN4)cc3[nH]2)ccc1OCc1cn(CCN2CCOCC2)nn1 [46c] | > 100 | 4.1 | 19.6 | > 100 | > 100 | > 100 | > 100 | 50.7 ± 20.5 | > 100 | > 100 | – | 1.97 | – | – | IC50 [2]: 5.1 ± 4.2 µM; toxicity to normal BJ cells (in words) (human fibroblasts (BJ)): not toxic; SI (BJ) HL60 [6]: 1.97
4 | O=C(COc1ccc(-c2nc3ccc(C4=NCCCN4)cc3[nH]2)cc1)c1ccccc1 [42a] | > 100 | 7 ± 5.2 | 14.29 | 44.5 ± 5.3 | 76.3 ± 11.8 | > 100 | > 100 | 33.2 ± 1.8 | > 100 | > 100 | – | 3.01 | 14.29 | 2.25 | SI (BJ) THP1 [3]: 2.25; SI (BJ) MDA-MB-231 ([4]; SI = IC50 BJ / IC50 MDA-MB-231): 1.31; SI (MDCK) MDA-MB-231 [4]: 1.31; SI (BJ) HL60 [6]: 3.01
5 | c1ccc(COc2ccc(-c3nc4ccc(C5=NCCCN5)cc4[nH]3)cc2)nc1 [43a] | > 100 | 28.6 ± 3.9 | 3.5 | 29.7 ± 8.6 | > 100 | > 100 | 33 ± 20.3 | 40.4 ± 12 | > 100 | > 100 | – | 2.48 | – | 3.37 | –
6 | O=C(COc1ccc(-c2nc3ccc(C4=NCCCN4)cc3s2)cc1F)c1ccccc1 [38b] | 30.5 ± 9.2 | 4 ± 0.9 | 6.65 | 14.7 ± 4.1 | 42.4 ± 7.2 | 19.4 ± 4.7 | 32.2 ± 2.8 | 15.8 ± 2.3 | 22.1 ± 1.2 | 26.6 ± 3.1 | – | 1.68 | 8.05 | 1.8 | SI (BJ) THP1 [3]: 2.19; SI (BJ) CaCo-2 ([5]; SI = IC50 BJ / IC50 CaCo-2): 1.66; SI (MDCK) CaCo-2 [5]: 1.37; SI (BJ) HL60 [6]: 2.04
7 | c1ccc(COc2ccc(-c3nc4ccccc4s3)cc2)nc1 [20a, 2-(4-(Pyridin-2-ylmethoxy)phenyl)benzothiazole] | – | > 100 | – | – | – | > 100 | > 100 | – | > 100 | 65.7 ± 11.8 | 132 to 136 | – | – | – | –
8 | O=C(COc1ccc(-c2nc3ccc(C4=NCCCN4)cc3[nH]2)cc1F)c1ccccc1 [42b] | 92.7 ± 34.3 | 11.9 ± 3.6 | 5.66 | > 100 | 84.5 ± 18.3 | > 100 | 47 ± 3.3 | 44.4 ± 12.6 | > 100 | 67.3 ± 12.7 | – | 1.51 | 3.95 | – | –
9 | COc1cc(-c2nc3ccc(C4=NCCCN4)cc3s2)ccc1OCc1ccccn1 [39c] | 34.2 ± 7.1 | 12.7 ± 0.9 | 7.87 | 69.7 ± 6.3 | 38.5 ± 1.6 | 34.7 ± 2.8 | 38.1 ± 1.4 | 31.1 ± 3 | > 100 | > 100 | – | 3.22 | 3 | 1.43 | SI (MDCK) SW620 ([1]; SI = IC50 MDCK1 / IC50 SW620): 2.92; SI (MDCK) MDA-MB-231 [4]: 2.6; SI (MDCK) CaCo-2 [5]: 2.87
10 | c1ccc(Cn2cc(COc3ccc(-c4nc5ccccc5s4)cc3)nn2)cc1 [26a, 2-(4-((1-Benzyl-1H-1,2,3-triazol-4-yl)methoxy)phenyl)benzothiazole] | – | > 100 | – | – | – | > 100 | > 100 | – | > 100 | 36.7 ± 18 | 210 to 214 | – | – | – | –
11 | COc1cc(-c2nc3ccc(Cl)cc3s2)ccc1OCc1cn(Cc2ccccc2)nn1 [24c, 6-Chloro-2-(3-methoxy-4-((1-benzyl-1H-1,2,3-triazol-4-yl)methoxy)phenyl)benzothiazole] | – | 49.6 ± 38 | – | – | – | > 100 | > 100 | – | 82.8 ± 32.3 | 41.1 ± 17.2 | 190 to 193 | – | 2.0 | – | –
